Experimental data from patent publication US5383848A, “Iontophoretic administration of drugs” (Gensia, Inc., priority 1991, dated 1995).
Several values for one entry are separate records, joined by “and”; a condition that tells them apart may be missing. Equal entries are not always repeated. Entries after “also recorded” stand apart in the source; their conditions may differ.

Legend:
[1] = Redness/irritation index of topical formulations on human volunteers (Example B); details: for Redness/irritation index, Mean: 7 subjects
Description: In these experiments data were collected from seven human volunteers concerning the effects of topical dermal clearance enhancers. […] Observations were recorded at 10, 20, and 30 minute intervals. The following redness/irritation index was used to categorize vasodilation/irritation:
0=no redness, i.e., erythema;
W=Wheal irritation, i.e., edemic core surrounded by an erythemic ring; and
The presence of vasodilation was determined by degree of redness of the skin. Wheal irritation was signified by the presence of an erythemic ring surrounding an upraised pale center. Whitening was denoted by a pale area with no upraising or redness.

elevated heart rate [2] = experiment: In vivo dog experiments: heart rate offset after iontophoretic ESA drug with pretreatment (Example A); parameters: species or system labrador dogs; details: for Offset Slope Component (0-5) min: 0-5 min after heart rate begins to decline; for Offset Slope Component (5-10) min: 5-10 min after decline begins; for Offset Slope Component (10-30) min: 10-30 min after decline begins; for Change in Heart Rate (peak minus baseline) / Peak Heart Rate: Table II; for Onset Slope: baseline at onset time to peak heart rate; for Offset time: drug delivery stopped until within 20 bpm of baseline; for Offset Slope: drug shut-off to 20 bpm above baseline; for Delay: drug shut-off to start of heart rate decline; for t 1/2 of elevated heart rate decay: exponential fit; for Onset time: start of delivery to start of increase in heart rate; for Time Start Decline: time when elevated heart rate began to decline
elevated heart rate [3] = experiment: Additional in vivo dog experiments: dermal clearance enhancer pretreatment then arbutamine TDI (Example C); parameters: species or system labrador dogs
Description: Additional experiments were performed to study the effect of certain compositions on the offset time and dermal clearance in dogs.
In these experiments, the formulation to be tested was applied either topically or by transdermal iontophoresis (TDI) as described below.
Six labrador dogs (20 to 30 kg) were trained to lie quietly on a table. Before each experiment, three ECG electrodes (one lead) were applied on shaved areas of the back (near the front legs) to obtain the heart rate. The outer hind leg area (either right or left) was shaved prior to each experiment, with care taken not to cut or visibly damage the skin. The area was cleaned with soap and water and the skin was then […] using an alcohol swab followed by skin preparation with 3M One-Step-Prep™ tape.
Each vasodilator that was delivered by TDI used a 1.8 cm^2 electrode (Graphic Controls, Buffalo, N.Y.) containing the vasodilator in a gel at the concentrations listed in experimental methods section. In all experiments, an indifferent electrode containing a phosphate-buffered-saline gel was applied to the skin in conjunction with the electrode containing the vasodilator. Each vasodilator tested was applied for 10 minutes using a current of 0.6 mA/cm^2. During this time the heart rate was continuously recorded (at 5 second intervals) with the ESA Research System. The delivery electrodes were then removed, and any excess gel adhering to the skin was gently removed using a tissue.
Each topically applied vasodilator was applied to the skin in a volume of approximately 0.25 ml. The agent was allowed to absorb into the skin, during which time the heart rate was continuously recorded for 10 minutes using the ESA Research System.
To test if heat alone would produce sufficient vasodilation, a 60° C. hot pack was applied to the skin 10 minutes prior to drug delivery, during which time the heat rate was continuously recorded by the ESA System. Once drug delivery electrodes were applied, the heat pack was reheated and placed on top of them for the duration of the study.
The purpose of this treatment was to produce an elevated heart rate response of at least 40 beats-per-minute above baseline lasting for at least 30 minutes.
^1/ The dose (ITCA) was calculated by multiplying the applied current density (mA/cm^2) by the duration of delivery (minutes) and the drug concentration (%) and the area of the electrode (cm^2). […] The units of ITCA are mA.minutes.
The important variables for this analysis are:
1) delay between time when drug administration was stopped and start of decline in heart rate;
2) the time (minutes) to reach successive percent levels (i.e. 10, 20, 30, 40, and 50% decline) from the point of maximum change in heart rate^2.
3) the half-life (minutes) of the heart rate decline obtained from an exponential fit of the offset slope.
A combination of over-the-counter (OTC) and proprietary formulations were selected for comparison. […] Two dogs received each treatment at least one time.
The six dogs are identified in the table as BA, BB, BO, MI, PO and SA, followed by the experimental identification number. These dogs received control (no pretreatment) and five DCE pretreatment regimens.

[4] = Table VII, single dog run, listed as 1% Tolazoline

COC(=O)c1ccccc1O [Methyl Salicylate, Methyl salicylate]
Redness/irritation index, Mean ([1]; 10 min): 0
Redness/irritation index ([1]; 10 min, subject CV): 0
Redness/irritation index ([1]; 10 min, subject four): 0
Redness/irritation index ([1]; 10 min, subject one): 0
Redness/irritation index ([1]; 10 min, subject three): 0
Redness/irritation index ([1]; 10 min, subject two): 0
Redness/irritation index, Mean ([1]; 20 min): 0
Redness/irritation index ([1]; 20 min, subject CV): 0
Redness/irritation index ([1]; 20 min, subject three): 0
Redness/irritation index ([1]; 20 min, subject two): 0
Redness/irritation index, Mean ([1]; 30 min): 0
Redness/irritation index ([1]; 30 min, subject CV): 0
Redness/irritation index ([1]; 30 min, subject three): 0
Redness/irritation index ([1]; 30 min, subject two): 0

c1ccc(CC2=NCCN2)cc1 [Tolazoline]
Offset Slope Component (0-5) min (elevated heart rate [2]; listed as 5): -0.90 beats per minute per minute
Offset Slope Component (0-5) min (elevated heart rate [2]; listed as 6): -1.40 beats per minute per minute
Offset Slope Component (5-10) min (elevated heart rate [2]; listed as 5): -3.30 beats per minute per minute
Offset Slope Component (5-10) min (elevated heart rate [2]; listed as 6): -3.90 beats per minute per minute
Percent decline in heart rate, ranking (elevated heart rate [2]; 10-20 minute interval, FIG. 1): greatest percent decline
Offset Slope Component (10-30) min (elevated heart rate [2]; listed as 5): -0.70 beats per minute per minute
Offset Slope Component (10-30) min (elevated heart rate [2]; listed as 6): -0.58 beats per minute per minute
Delay to onset of heart rate decline, ranking (elevated heart rate [2]; FIG. 2): shortest delay
Heart rate decay half-life, ranking (elevated heart rate [2]; FIG. 2): relatively short half-lives
Reduction in heart rate offset (elevated heart rate [2]; FIGS. 3 and 4): dramatic reduction in heart rate offset
Change in Heart Rate (peak minus baseline) (elevated heart rate [2]; listed as 5): 53 bpm
Peak Heart Rate (elevated heart rate [2]; listed as 5): 119 bpm
Change in Heart Rate (peak minus baseline) (elevated heart rate [2]; listed as 6): 33 bpm
Peak Heart Rate (elevated heart rate [2]; listed as 6): 121 bpm
Total time (startup) thru offset plateau: w/in 20 bpm of baseline (elevated heart rate [2]; Table IV): 34 min
Total time (startup) thru offset plateau: reached baseline (elevated heart rate [2]; Table IV, listed as 5): 60 min
Total time (startup) thru offset plateau: reached baseline (elevated heart rate [2]; Table IV, listed as 6): 30 min
Onset Slope (elevated heart rate [2]; listed as 5): 4.70 beats per minute per minute
Onset Slope (elevated heart rate [2]; listed as 6): 3.50 beats per minute per minute
Offset time (elevated heart rate [2]; listed as 5): 34.00 min
Offset time (elevated heart rate [2]; listed as 6): 8.00 min
Offset Slope (elevated heart rate [2]; listed as 5): -1.00 beats per minute per minute
Offset Slope (elevated heart rate [2]; listed as 6): -3.20 beats per minute per minute
Delay (elevated heart rate [2]; listed as 5): 2.00 min
Delay (elevated heart rate [2]; listed as 6): 4.00 min
t 1/2 of elevated heart rate decay (elevated heart rate [2]; Table IV, listed as 5): 14.06 min
t 1/2 of elevated heart rate decay (elevated heart rate [2]; Table IV, listed as 6): 6.77 min
Reduction in offset time (elevated heart rate [2]; iontophoretic pre-delivery): found effective when pre-delivered iontophoretically; also recorded: significant reduction in offset time
Onset time (elevated heart rate [2]; listed as 5): 10.00 min
Onset time (elevated heart rate [2]; listed as 6): 7.00 min
Time Start Decline (elevated heart rate [2]; listed as 5): 20.00 min
Time Start Decline (elevated heart rate [2]; listed as 6): 21.00 min
Dermal clearance enhancement (elevated heart rate [2]; topical pretreatment): no measurable dermal clearance enhancement
CHANGE IN HEART RATE, Mean (elevated heart rate [3]; Table VII, mean of runs): 80.64 BPM
DELAY TIME, Mean (elevated heart rate [3]; Table VII, mean of runs): 2.76 min
HALF-LIFE, Mean (elevated heart rate [3]; Table VII, mean of runs): 16.35 min
TIME TO REACH 10% DECLINE IN HEART RATE, Mean (elevated heart rate [3]; Table VII, mean of runs): 6.44 min
TIME TO REACH 20% DECLINE IN HEART RATE, Mean (elevated heart rate [3]; Table VII, mean of runs): 9.83 min
TIME TO REACH 30% DECLINE IN HEART RATE, Mean (elevated heart rate [3]; Table VII, mean of runs): 13.40 min
TIME TO REACH 40% DECLINE IN HEART RATE, Mean (elevated heart rate [3]; Table VII, mean of runs): 18.38 min
TIME TO REACH 50% DECLINE IN HEART RATE, Mean (elevated heart rate [3]; Table VII, mean of runs): 27.16 min
CHANGE IN HEART RATE (elevated heart rate [3]; [4]): 53.00 BPM and 101.93 BPM and 80.67 BPM and 84.26 BPM and 93.54 BPM and 69.23 BPM and 92.75 BPM and 67.50 BPM and 97.31 BPM and 84.22 BPM and 64.17 BPM and 87.58 BPM and 72.15 BPM
DELAY TIME (elevated heart rate [3]; [4]): 2.00 min and 5.28 min and 0.67 min and 1.33 min and 1.77 min and 5.27 min and 1.81 min and 0.39 min and 0.00 min and 0.22 min and 4.43 min and 8.02 min and 4.65 min
TIME TO REACH 10% DECLINE IN HEART RATE (elevated heart rate [3]; [4]): 7.24 min and 9.14 min and 2.56 min and 9.27 min and 4.71 min and 8.58 min and 4.56 min and 4.31 min and 2.17 min and 4.63 min and 6.46 min and 9.64 min and 10.49 min
TIME TO REACH 20% DECLINE IN HEART RATE (elevated heart rate [3]; [4]): 8.85 min and 12.89 min and 4.46 min and 15.49 min and 7.55 min and 12.60 min and 10.28 min and 12.20 min and 4.12 min and 7.66 min and 8.49 min and 11.25 min and 11.90 min
TIME TO REACH 30% DECLINE IN HEART RATE (elevated heart rate [3]; [4]): 10.45 min and 16.35 min and 6.18 min and 20.96 min and 10.17 min and 19.78 min and 19.70 min and 14.89 min and 7.47 min and 11.55 min and 10.55 min and 12.87 min and 13.30 min
TIME TO REACH 40% DECLINE IN HEART RATE (elevated heart rate [3]; [4]): 12.29 min and 19.40 min and 7.61 min and 26.43 min and 14.58 min and 30.11 min and 28.29 min and 17.58 min and 12.20 min and 26.06 min and 12.63 min and 16.89 min and 14.83 min
TIME TO REACH 50% DECLINE IN HEART RATE (elevated heart rate [3]; [4]): 19.86 min and 22.45 min and 9.04 min and 31.33 min and 21.82 min and 35.27 min and 60.00 min and 20.27 min and 19.92 min and 66.00 min and 14.68 min and 20.44 min and 18.05 min
HALF-LIFE (elevated heart rate [3]; heart rate decline, Table VII, single dog run, listed as 1% Tolazoline): 5.75 min and 10.87 min and 20.60 min and 12.81 min and 18.60 min and 18.02 min and 11.30 min
response in screening study (elevated heart rate [3]; two dogs per treatment): most pronounced response
